This note sets out measurements from US20240148821A1, “PHARMACEUTICAL USE OF CYCLIC PEPTIDE COMPOUND” (CHUGAI SEIYAKU KABUSHIKI KAISHA, priority 2021, published 2024).

Each structure is given as a SMILES string. Numbered stars: 1 amine (or outer) side, 2 acyl side, 3 side chain; on linkers, the order of the positions; unused ones are H or OH. Bridge positions count the residues as written; N and C are the ends. Square brackets hold non-standard residues; d marks the D form. Peptide text beside a SMILES is read from it. * marks the point of attachment. hPhe(3,5-F2-4-CF3) = N[C@@H](CCc1cc(F)c(C(F)(F)F)c(F)c1)C(=O)O; hPhe(3-Cl-4-CF3) = N[C@@H](CCc1ccc(C(F)(F)F)c(Cl)c1)C(=O)O; NEtPhe(4-CF3) = CCN[C@@H](Cc1ccc(C(F)(F)F)cc1)C(=O)O; NMePhe(4-CF3) = CN[C@@H](Cc1ccc(C(F)(F)F)cc1)C(=O)O; NEtPhe(4-Me) = CCN[C@@H](Cc1ccc(C)cc1)C(=O)O; NMePhe(3-Cl) = CN[C@@H](Cc1cccc(Cl)c1)C(=O)O; NMePhe(4-Cl) = CN[C@@H](Cc1ccc(Cl)cc1)C(=O)O; NMePhe(4-Me) = CN[C@@H](Cc1ccc(C)cc1)C(=O)O; NMedβ3hAla = C[C@H](CC(=O)[*:2])N(C)[*:1]; Phe(3-Cl) = N[C@@H](Cc1cccc(Cl)c1)C(=O)O; X119 = CN(C)C(=O)CCCN(CC(=O)[*:2])[*:1]; X133 = O=C(C[C@H](N[*:1])C(F)(F)F)[*:2]; NMeGly(cPent) = CN[C@H](C(=O)O)C1CCCC1; Pro(4,4-F2) = O=C(O)[C@@H]1CC(F)(F)CN1; NMeCha = CN[C@@H](CC1CCCCC1)C(=O)O; Hyp = O=C(O)[C@@H]1C[C@@H](O)CN1; NMeChg = CN[C@H](C(=O)O)C1CCCCC1; NMeI = CC[C@H](C)[C@H](NC)C(=O)O; Gly(cBu) = N[C@H](C(=O)O)C1CCC1; NMeD = CN[C@@H](CC(=O)O)C(=O)O; NMeL = CN[C@@H](CC(C)C)C(=O)O; NMeV = CN[C@H](C(=O)O)C(C)C; d(β3hA) = C[C@@H](N)CC(=O)O; NMeS = CN[C@@H](CO)C(=O)O; NMeA = CN[C@@H](C)C(=O)O; Piperidide = C1CCN(*)CC1; Pyrrolidide = C1CCN(*)C1; dNMeA = CN[C@H](C)C(=O)O; Ac5c = NC1(C(=O)O)CCCC1; Aze = O=C(O)[C@@H]1CCN1; Ac4c = NC1(C(=O)O)CCC1; Isopentyl = CC(C)CC*; Sar = CNCC(=O)O

The first assay addresses protein-protein interaction between Kras and SOS1 (biotin-tagged human Kras loaded with GDP, His-tagged human SOS1) (Homo sapiens (Human), UniProt P01116, G12D). The assay is described as follows: Protein-protein interaction inhibition between Kras and SOS1 (KrasG12D-SOS PPI) using AlphaScreen.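 Further: kras produced in E. coli, Ni-coupled donor beads and streptavidin acceptor beads, excitation 680 nm with emission detected at 520–620 nm via singlet oxygen transfer.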 Type of assay: biochemical.
Settings: not given
For `CC[C@H](C)[C@@H]1NC(=O)[C@H](CC(C)C)N(C)C(=O)C[C@@H](C(=O)N2CCCCC2)N(C)C(=O)[C@H](C2CCCCC2)N(C)C(=O)C2(CCCC2)NC(=O)CN(CCCC(=O)N(C)C)C(=O)[C@H](CCc2ccc(C(F)(F)F)c(Cl)c2)NC(=O)CN(C)C(=O)[C@H](CC2CCCCC2)N(C)C(=O)CN(C)C(=O)CN(C)C1=O` [Compound 2052, 4-[(11S,17S,26S,29S,33S,36S)-11-[2-[3-chloro-4-(trifluoromethyl)phenyl]ethyl]-36-cyclohexyl-17-(cyclohexylmethyl)-29-isobutyl-15,18,21,24,30,34,37-heptamethyl-26-[(1S)-1-methylpropyl]-7,10,13,16,19,22,25,28,31,35,38-undecaoxo-33-(piperidine-1-carbonyl)-6,9,12,15,18,21,24,27,30,34,37-undecazaspiro[4.33]octatriacontan-9-yl]-N,N-dimethyl-butanamide] ([NMeL]I[Sar][Sar][NMeCha][Sar][hPhe(3-Cl-4-CF3)][X119][Ac5c][NMeChg][NMeD]-Piperidide; lactam N-11), the IC50 (in general, the point on the concentration scale where inhibition reaches its midpoint) was found to be 4.9 nM.

The assay is the same for the next values; noted with them: AlphaScreen; biotin-tagged human Kras loaded with GDP, His-tagged human SOS1; read-out: KRAS G12D-SOS PPI IC50.
On to `CC[C@H](C)[C@@H]1NC(=O)[C@H](CC(C)C)N(C)C(=O)C[C@@H](C(=O)N2CCCCC2)N(C)C(=O)[C@H](C2CCCCC2)N(C)C(=O)C2(CCCC2)NC(=O)[C@@H]2C[C@@H](O)CN2C(=O)[C@H](CCc2ccc(C(F)(F)F)c(Cl)c2)NC(=O)CN(C)C(=O)[C@H](CC2CCCCC2)N(C)C(=O)CN(C)C(=O)CN(C)C1=O` [Compound 1376, (3S,9S,18S,21S,25S,28S,34S,36R)-3-[2-[3-chloro-4-(trifluoromethyl)phenyl]ethyl]-28-cyclohexyl-9-(cyclohexylmethyl)-36-hydroxy-21-isobutyl-7,10,13,16,22,26,29-heptamethyl-18-[(1S)-1-methylpropyl]-25-(piperidine-1-carbonyl)spiro[1,4,7,10,13,16,19,22,26,29,32-undecazabicyclo[32.3.0]heptatriacontane-31,1′-cyclopentane]-2,5,8,11,14,17,20,23,27,30,33-undecone] ([NMeL]I[Sar][Sar][NMeCha][Sar][hPhe(3-Cl-4-CF3)][Hyp][Ac5c][NMeChg][NMeD]-Piperidide; lactam N-11), for which the concentration for half-maximal inhibition (IC50) worked out at 0.71 nM. With `CC[C@H](C)[C@@H]1NC(=O)[C@H](C)N(C)C(=O)C[C@@H](C(=O)N2CCCCC2)N(C)C(=O)[C@H](C(C)C)N(C)C(=O)C2(CCCC2)NC(=O)[C@H](Cc2cccc(Cl)c2)N(C)C(=O)[C@H](CCc2ccc(C(F)(F)F)c(Cl)c2)NC(=O)CN(C)C(=O)[C@H](CC2CCCCC2)N(C)C(=O)CN(C)C(=O)CN(C)C1=O` [Compound 282] ([NMeA]I[Sar][Sar][NMeCha][Sar][hPhe(3-Cl-4-CF3)][NMePhe(3-Cl)][Ac5c][NMeV][NMeD]-Piperidide; lactam N-11), the 50% inhibitory concentration (IC50) amounted to 94 nM. With `CC[C@H](C)[C@@H]1NC(=O)[C@H](CC(C)C)N(C)C(=O)C[C@@H](C(=O)N2CCCCC2)N(C)C(=O)[C@H](C(C)C)N(C)C(=O)C2(CCC2)NC(=O)[C@@H]2CCCN2C(=O)[C@H](CCc2ccc(C(F)(F)F)c(Cl)c2)NC(=O)CN(C)C(=O)[C@H](CC2CCCCC2)N(C)C(=O)[C@@H]2CCN2C(=O)[C@H](C)N(C)C1=O` [Compound 1672] ([NMeL]I[NMeA][Aze][NMeCha][Sar][hPhe(3-Cl-4-CF3)]P[Ac4c][NMeV][NMeD]-Piperidide; lactam N-11), the IC50 came to 4.3 nM. Take `CC[C@H](C)[C@@H]1NC(=O)[C@H](CC(C)C)N(C)C(=O)C[C@@H](C(=O)N2CCCC2)NC(=O)[C@H](C2CCCC2)N(C)C(=O)C2(CCCC2)NC(=O)[C@@H]2CCCN2C(=O)[C@H](CCc2ccc(C(F)(F)F)c(Cl)c2)NC(=O)CN(C)C(=O)[C@H](CC2CCCCC2)N(C)C(=O)[C@@H]2CCN2C(=O)[C@H](C)N(C)C1=O` [Compound 700] ([NMeL]I[NMeA][Aze][NMeCha][Sar][hPhe(3-Cl-4-CF3)]P[Ac5c][NMeGly(cPent)]D-Pyrrolidide; lactam N-11): the IC50 was 5 nM. Same read-out and setting: for `CC[C@H](C)[C@@H]1NC(=O)[C@H](CC(C)C)N(C)C(=O)C[C@@H](C)N(C)C(=O)[C@H](C2CCCCC2)N(C)C(=O)C2(CCC2)NC(=O)[C@@H]2CC(F)(F)CN2C(=O)[C@H](CCc2cc(F)c(C(F)(F)F)c(F)c2)NC(=O)CN(C)C(=O)[C@H](Cc2ccc(C)cc2)N(CC)C(=O)[C@@H]2CCN2C(=O)[C@H](C)N(C)C1=O` [Compound 475] (cyclo([Ac4c][NMeChg][NMedβ3hAla][NMeL]I[NMeA][Aze][NEtPhe(4-Me)][Sar][hPhe(3,5-F2-4-CF3)][Pro(4,4-F2)])) the value was 51 nM; for `CC[C@H](C)[C@@H]1NC(=O)[C@H](CC(C)C)N(C)C(=O)C[C@@H](C)NC(=O)[C@H](C(C)C)N(C)C(=O)C2(CCCC2)NC(=O)[C@@H]2CCCN2C(=O)[C@H](CCc2ccc(C(F)(F)F)c(Cl)c2)NC(=O)CN(C)C(=O)[C@H](CC2CCCCC2)N(C)C(=O)[C@@H]2CCN2C(=O)[C@H](C)N(C)C1=O` [Compound 488, (5S,8S,11S,15R,18S,23aS,29S,35S,37aS)-8-((S)-sec-butyl)-29-(3-chloro-4-(trifluoromethyl)phenethyl)-35-(cyclohexylmethyl)-11-isobutyl-18-isopropyl-5,6,12,15,19,33,36-heptamethyldocosahydro-2H,4H-spiro[azeto[2,1-u]pyrrolo[2,1-i][1,4,7,10,13,16,19,22,25,28,31]undecaazacyclotetratriacontine-21,1′-cyclopentan]-4,7,10,13,17,20,23,28,31,34,37(14H,22H)-undecaone] (cyclo([Ac5c][NMeV][d(β3hA)][NMeL]I[NMeA][Aze][NMeCha][Sar][hPhe(3-Cl-4-CF3)]P)), 29 nM; for `CC[C@H](C)[C@@H]1NC(=O)[C@H](C)N(C)C(=O)C[C@@H](C)NC(=O)[C@H](C2CCCC2)N(C)C(=O)C2(CCCC2)NC(=O)[C@@H]2CCCN2C(=O)[C@H](CCc2ccc(C(F)(F)F)c(Cl)c2)NC(=O)[C@@H](C)N(C)C(=O)[C@H](Cc2ccc(C(F)(F)F)cc2)N(C)C(=O)[C@@H]2CCN2C(=O)[C@H](C)N(C)C1=O` [Compound 1497] (cyclo([Ac5c][NMeGly(cPent)][d(β3hA)][NMeA]I[NMeA][Aze][NMePhe(4-CF3)][dNMeA][hPhe(3-Cl-4-CF3)]P)), 25 nM. Take `CC[C@H](C)[C@@H]1NC(=O)[C@H](CC(C)C)N(C)C(=O)C[C@@H](C)NC(=O)[C@H](C2CCCC2)N(C)C(=O)C2(CCCC2)NC(=O)[C@@H]2CCCN2C(=O)[C@H](CCc2ccc(C(F)(F)F)c(Cl)c2)NC(=O)CN(C)C(=O)[C@H](Cc2ccc(C)cc2)N(C)C(=O)CN(C)C(=O)CN(C)C1=O` [Compound 1471] (cyclo([Ac5c][NMeGly(cPent)][d(β3hA)][NMeL]I[Sar][Sar][NMePhe(4-Me)][Sar][hPhe(3-Cl-4-CF3)]P)): the concentration for half-maximal inhibition (IC50) came out at 1.7 nM.

In the case of `CCO[C@@H]1C[C@H]2C(=O)N(C)[C@@H](COCCC(C)C)C(=O)N(C)[C@@H](CC(C)C)C(=O)N[C@H](C(=O)N3CCCC3)CC(=O)N(C)[C@@H](C)C(=O)N[C@@H]([C@@H](C)CC)C(=O)N(C)CC(=O)N(C)CC(=O)N(C)[C@@H](Cc3ccc(Cl)cc3)C(=O)N(C)CC(=O)N[C@@H](Cc3cccc(Cl)c3)C(=O)N2C1` [Compound 925] ([NMeA]I[Sar][Sar][NMePhe(4-Cl)][Sar][Phe(3-Cl)][Hyp](Et)[NMeS](Isopentyl)[NMeL]D-Pyrrolidide; lactam N-11), the IC50 was found to be 360 nM.

As for `CC[C@H](C)[C@@H]1NC(=O)[C@H](CC(C)C)N(C)C(=O)C[C@@H](C)N(C)C(=O)[C@H](C2CCCCC2)N(C)C(=O)C2(CCC2)NC(=O)[C@@H]2CC(F)(F)CN2C(=O)[C@H](CCc2ccc(C(F)(F)F)c(Cl)c2)NC(=O)CN(C)C(=O)[C@H](Cc2ccc(C(F)(F)F)cc2)N(CC)C(=O)[C@@H]2CCN2C(=O)[C@H](C)N(C)C1=O` [Compound 345] (cyclo([Ac4c][NMeChg][NMedβ3hAla][NMeL]I[NMeA][Aze][NEtPhe(4-CF3)][Sar][hPhe(3-Cl-4-CF3)][Pro(4,4-F2)])), the 50% inhibitory concentration (IC50) stood at 58 nM. Same read-out and setting: to `CC(C)C[C@H]1C(=O)N[C@@H](C2CCC2)C(=O)N(C)[C@@H](C)C(=O)N2CC[C@H]2C(=O)N(C)[C@@H](CC2CCCCC2)C(=O)N(C)CC(=O)N[C@@H](CCc2ccc(C(F)(F)F)c(Cl)c2)C(=O)N2CCC[C@H]2C(=O)NC2(CCCC2)C(=O)N(C)[C@@H](C(C)C)C(=O)N[C@H](C)CC(=O)N1C` [Compound 580] (cyclo([Ac5c][NMeV][d(β3hA)][NMeL][Gly(cBu)][NMeA][Aze][NMeCha][Sar][hPhe(3-Cl-4-CF3)]P)) belongs 66 nM; to `CC[C@H](C)[C@@H]1NC(=O)[C@H](CC(C)C)N(C)C(=O)C[C@@H](C(F)(F)F)NC(=O)[C@H]([C@@H](C)CC)N(C)C(=O)C2(CCCC2)NC(=O)[C@@H]2CCCN2C(=O)[C@H](CCc2ccc(C(F)(F)F)c(Cl)c2)NC(=O)CN(C)C(=O)[C@H](Cc2ccc(C)cc2)N(C)C(=O)[C@@H]2CCN2C(=O)[C@H](C)N(C)C1=O` [Compound 1919] (cyclo([Ac5c][NMeI][X133][NMeL]I[NMeA][Aze][NMePhe(4-Me)][Sar][hPhe(3-Cl-4-CF3)]P)), 210 nM. On to `CC[C@H](C)[C@@H]1NC(=O)[C@H](CC(C)C)N(C)C(=O)C[C@@H](C(=O)N2CCCCC2)N(C)C(=O)[C@H](CC(C)C)NC(=O)C(C)(C)N(C)C(=O)[C@H](COc2ccccc2)NC(=O)[C@H](Cc2cccc(I)c2)NC(=O)CN(C)C(=O)[C@H](Cc2ccc(C)cc2)N(C)C(=O)[C@@H]2CCN2C(=O)CN(C)C1=O` [Compound 2114, (6S,9S,13S,16S,22S,25S,31S,34S)-25-[(3-iodophenyl)methyl]-9,16-diisobutyl-4,10,14,19,19,20,29,32-octamethyl-6-[(1S)-1-methylpropyl]-22-(phenoxymethyl)-13-(piperidine-1-carbonyl)-31-(p-tolylmethyl)-1,4,7,10,14,17,20,23,26,29,32-undecazabicyclo[32.2.0]hexatriacontane-2,5,8,11,15,18,21,24,27,30,33-undecone], for which the IC50 worked out at 110 nM.
